For 1 molecule, Ki results are on record in PMC6549035, “CUMYL-4CN-BINACA Is an Efficacious and Potent Pro-Convulsant Synthetic Cannabinoid Receptor Agonist” (Frontiers in Pharmacology, 2019).

Test [1] has as its target T1, human CB2 receptor (hCB2) (Homo sapiens, UniProt P34972).
T1 construct: gene CNR2; 3-HA tagged CB2 receptor
Kind of test: [3H]-CP […] competition radioligand binding on HEK293 membranes.

Test [2] concerns the target T2, human CB1 receptor (hCB1) (Homo sapiens, UniProt P21554).
T2 construct: gene CNR1
The test is described as above.

T2 sequence (P21554 whole entry): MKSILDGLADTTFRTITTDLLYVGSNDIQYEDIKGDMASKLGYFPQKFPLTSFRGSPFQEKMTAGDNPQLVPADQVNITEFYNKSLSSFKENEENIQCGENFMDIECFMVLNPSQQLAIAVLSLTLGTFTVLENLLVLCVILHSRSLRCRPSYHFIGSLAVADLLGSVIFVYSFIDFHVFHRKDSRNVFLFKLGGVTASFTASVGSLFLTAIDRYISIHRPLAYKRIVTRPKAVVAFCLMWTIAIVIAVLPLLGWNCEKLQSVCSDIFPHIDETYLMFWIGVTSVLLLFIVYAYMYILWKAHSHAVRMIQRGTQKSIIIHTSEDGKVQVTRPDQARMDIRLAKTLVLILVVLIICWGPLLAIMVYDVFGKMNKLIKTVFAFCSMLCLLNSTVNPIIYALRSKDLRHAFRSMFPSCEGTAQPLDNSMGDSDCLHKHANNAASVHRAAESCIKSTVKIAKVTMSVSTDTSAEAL
T1 sequence (P34972 whole entry): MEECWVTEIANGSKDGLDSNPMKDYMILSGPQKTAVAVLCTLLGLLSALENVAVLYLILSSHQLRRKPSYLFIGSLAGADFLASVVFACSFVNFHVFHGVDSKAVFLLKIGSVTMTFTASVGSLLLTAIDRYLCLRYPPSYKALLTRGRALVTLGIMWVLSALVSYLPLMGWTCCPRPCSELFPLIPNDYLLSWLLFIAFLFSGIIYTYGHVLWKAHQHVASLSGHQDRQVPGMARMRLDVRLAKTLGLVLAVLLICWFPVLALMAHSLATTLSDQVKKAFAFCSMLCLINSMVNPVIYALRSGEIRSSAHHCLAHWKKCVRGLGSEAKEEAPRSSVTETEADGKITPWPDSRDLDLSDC

What is called Ki is the equilibrium dissociation constant of an inhibitor or competing ligand from its target. A higher Ki goes with weaker binding. Turning to `CC(C)(NC(=O)c1nn(CCCCC#N)c2ccccc12)c1ccccc1` [compound 1, 1-(4-cyanobutyl)-N-(2-phenylpropan-2-yl)indazole-3-carboxamide], the results for the Ki in test [1] and in test [2] were 14.7 nM and 2.6 nM, respectively.
